Publication PMC10208593 (Journal of molecular structure, 2023)
Entries after “also recorded” stand apart in the source; their conditions may differ. Like-named read-outs stand apart in the source and are kept apart here.

How the values were obtained:
HepG2 = assay: SRB cytotoxicity assay, HepG2; format: cell-based; conditions: Homo sapiens, HepG2, read-out: IC50 (μM) ± S.D. HepG2
Mahlavu [1] = assay: Real-time cell monitoring; format: cell-based, human; conditions: RT-CES, increasing concentrations, 72 h, vs DMSO control
Mahlavu [2] = assay: SRB cytotoxicity assay, Mahlavu; format: cell-based; conditions: Homo sapiens, read-out: IC50 (μM) ± S.D. Mahlavu
[3] = target: tubulin obtained from bovine brains (Bos taurus, UniProt P81947+Q6B856); assay: Inhibition of [3H]colchicine binding to tubulin; conditions: for Colchicine binding % inhibition ± SD, 50 μM: 50 μM compound, tubulin 1 μM, [3H]colchicine 5 μM; for inhibition at 50 µM: read-out: Colchicine binding % inhibition ± SD, 50 μM
HCT116 = assay: SRB cytotoxicity assay, HCT116; format: cell-based; conditions: Homo sapiens, HCT-116, 72 h, read-out: IC50 (μM) ± S.D. HCT116
MCF-7 = assay: SRB cytotoxicity assay, MCF-7; format: cell-based; conditions: Homo sapiens, MCF7, 72 h, read-out: IC50 (μM) ± S.D. MCF-7
Huh7 [4] = assay: Flow cytometry cell cycle analysis, Huh7; format: cell-based, human; conditions: propidium iodide; for cell cycle phase arrest, Huh7: 72 h at IC50 concentration; for cell cycle phase arrest, Huh7, higher concentration: 72 h at 10 μM
SNU475 = assay: SRB cytotoxicity assay, SNU475; format: cell-based; conditions: Homo sapiens, SNU-475, read-out: IC50 (μM) ± S.D. SNU475
[5] = tested on: Huh7, HepG2, Mahlavu and SNU475 cells; assay: Detection of apoptosis by Hoechst 33258 staining; format: cell-based, human; conditions: 48 h, IC100 concentrations, all four HCC lines
Huh7 [6] = assay: SRB cytotoxicity assay, Huh7; format: cell-based; conditions: Homo sapiens
Mahlavu [7] = assay: Flow cytometry cell cycle analysis, Mahlavu; format: cell-based, human; conditions: propidium iodide; for cell cycle phase arrest, Mahlavu, higher concentration: 72 h at 10 μM; for cell cycle phase arrest, Mahlavu: 72 h at IC50 concentration
six cancer cell lines = assay: SRB assay, six cancer cell lines taken together; format: cell-based; conditions: Homo sapiens, read-out: IC50 range against the six cancer cell lines examined
[8] = Huh-7, 72 h, read-out: IC50 (μM) ± S.D. Huh7
[9] = Huh-7, read-out: IC50 (μM) ± S.D. Huh7 (HCC cell lines)

Chain of tubulin obtained from bovine brains (Q6B856 whole entry): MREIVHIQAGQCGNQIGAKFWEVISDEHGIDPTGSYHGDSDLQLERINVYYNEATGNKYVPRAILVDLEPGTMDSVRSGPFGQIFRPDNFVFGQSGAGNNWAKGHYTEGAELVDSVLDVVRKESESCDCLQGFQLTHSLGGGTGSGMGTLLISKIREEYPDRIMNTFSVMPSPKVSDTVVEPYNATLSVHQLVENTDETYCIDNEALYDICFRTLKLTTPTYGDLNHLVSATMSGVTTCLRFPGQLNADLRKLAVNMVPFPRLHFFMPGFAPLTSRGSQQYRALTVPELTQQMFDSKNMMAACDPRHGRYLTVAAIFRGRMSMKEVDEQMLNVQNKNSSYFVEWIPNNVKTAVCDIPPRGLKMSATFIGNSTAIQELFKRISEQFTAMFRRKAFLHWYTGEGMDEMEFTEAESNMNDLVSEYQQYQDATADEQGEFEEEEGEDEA
Chain of tubulin obtained from bovine brains (P81947 whole entry): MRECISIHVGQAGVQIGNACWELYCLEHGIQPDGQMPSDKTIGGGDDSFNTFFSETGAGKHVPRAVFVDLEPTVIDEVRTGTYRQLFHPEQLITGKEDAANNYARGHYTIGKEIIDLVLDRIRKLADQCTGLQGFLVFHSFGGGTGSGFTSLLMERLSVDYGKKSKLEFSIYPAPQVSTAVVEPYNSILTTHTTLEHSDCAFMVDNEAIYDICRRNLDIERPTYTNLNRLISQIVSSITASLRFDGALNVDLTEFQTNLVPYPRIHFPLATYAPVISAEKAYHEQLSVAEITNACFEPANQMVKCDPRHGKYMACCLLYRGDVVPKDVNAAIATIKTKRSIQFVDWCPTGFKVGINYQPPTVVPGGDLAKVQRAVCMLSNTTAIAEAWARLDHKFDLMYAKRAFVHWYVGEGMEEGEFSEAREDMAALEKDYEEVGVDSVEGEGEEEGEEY

## COc1cc(NC(=O)c2cc(-c3c[nH]c4ccccc34)n[nH]2)cc(OC)c1OC [Compound 10, 3-(1H-Indol-3-yl)-N-(3,4,5-trimethoxyphenyl)-1H-pyrazole-5-carboxamide]
HepG2
  IC50: 2.9 ± 0.1 µM
Mahlavu [1]
  real-time cell growth (cell index) inhibition, Mahlavu: noticeable inhibition in cell growth in 6 μM concentration
Mahlavu [2]
  IC50: 2.7 ± 0.4 µM
[3]
  Colchicine binding % inhibition ± SD, 50 μM: Inhibition was observed
  inhibition at 50 µM: 26 ± 7%
HCT116
  IC50: 2.5 ± 0.3 µM
MCF-7
  IC50: 2.1 ± 0.1 µM
Huh7 [4]
  cell cycle phase arrest, Huh7: arrest in the G0/G1 phase
SNU475
  IC50: 4.1 ± 2.1 µM
[5]
  apoptotic nuclear morphology (Hoechst staining): visible nuclear blebs or deformed nuclei
Huh7 [6]; [8]
  IC50: 1 ± 0.2 µM
Huh7 [6]; [9]
  IC50: 1 ± 0.2 µM

## CC(C)(C)c1ccc(NC(=O)c2cc(-c3c[nH]c4ccccc34)n[nH]2)cc1 [Compound 11, N-(4-(tert-Butyl)phenyl)-3-(1H-indol-3-yl)-1H-pyrazole-5-carboxamide]
HepG2
  IC50: 2.7 ± 0.9 µM
Mahlavu [1]
  real-time cell growth (cell index) inhibition, Mahlavu: dose-dependent growth inhibition
Mahlavu [2]
  IC50: 3.4 ± 0.8 µM
[3]
  inhibition at 50 µM: 9.4 ± 2%
HCT116
  IC50: 1.2 ± 0.5 µM
MCF-7
  IC50: 1 ± 0.1 µM
Huh7 [4]
  cell cycle phase arrest, Huh7, higher concentration: arrest in the S phase
  cell cycle phase arrest, Huh7: did not cause a significant change
SNU475
  IC50: 4.3 ± 0.9 µM
[5]
  apoptotic nuclear morphology (Hoechst staining): visible nuclear blebs or deformed nuclei
Huh7 [6]; [8]
  IC50: 0.6 ± 0.4 µM
Huh7 [6]; [9]
  IC50: 0.6 ± 0.4 µM
Mahlavu [7]
  cell cycle phase arrest, Mahlavu, higher concentration: arrest in the S phase
  cell cycle phase arrest, Mahlavu: arrest in the S phase

## CSc1ccc(NC(=O)c2cc(-c3c[nH]c4ccccc34)n[nH]2)cc1 [Compound 12, 3-(1H-Indol-3-yl)-N-(4-(methylthio)phenyl)-1H-pyrazole-5-carboxamide]
HCT116
  IC50: 9 ± 1.9 µM
MCF-7
  IC50: 2 ± 0.2 µM
Huh7 [6]; [8]
  IC50: 6.3 ± 1.6 µM

## COc1cc(CNC(=O)c2cc(-c3c[nH]c4ccccc34)n[nH]2)cc(OC)c1OC [Compound 13, 3-(1H-Indol-3-yl)-N-(3,4,5-trimethoxybenzyl)-1H-pyrazole-5-carboxamide]
HCT116
  IC50: 31 ± 2.4 µM
MCF-7
  IC50: 17.9 ± 1 µM
Huh7 [6]; [8]
  IC50: 17.2 ± 2.1 µM

## O=C(Nc1ccccc1)c1cc(-c2c[nH]c3ccccc23)n[nH]1 [Compound 14, 3-(1H-Indol-3-yl)-N-phenyl-1H-pyrazole-5-carboxamide]
HCT116
  IC50: > 50 µM
MCF-7
  IC50: 22.2 ± 1.8 µM
Huh7 [6]; [8]
  IC50: 16.8 ± 3.8 µM

## COc1ccc(NC(=O)c2cc(-c3c[nH]c4ccccc34)n[nH]2)cc1 [Compound 15, 3-(1H-Indol-3-yl)-N-(4-methoxyphenyl)-1H-pyrazole-5-carboxamide]
HCT116
  IC50: 11.9 ± 1 µM
MCF-7
  IC50: 5.5 ± 0.5 µM
Huh7 [6]; [8]
  IC50: 8.6 ± 2.1 µM

## COc1cc(NC(=O)c2cc(-c3c[nH]c4ccccc34)n[nH]2)cc(OC)c1 [Compound 16, N-(3,5-Dimethoxyphenyl)-3-(1H-indol-3-yl)-1H-pyrazole-5-carboxamide]
HCT116
  IC50: 6.2 ± 1 µM
MCF-7
  IC50: 2.6 ± 0.5 µM
Huh7 [6]; [8]
  IC50: 4.5 ± 0.1 µM

## COc1ccc(NC(=O)c2cc(-c3c[nH]c4ccccc34)n[nH]2)cc1OC [Compound 17, N-(3,4-Dimethoxyphenyl)-3-(1H-indol-3-yl)-1H-pyrazole-5-carboxamide]
HCT116
  IC50: 10.1 ± 0.7 µM
MCF-7
  IC50: 1.7 ± 0.4 µM
Huh7 [6]; [8]
  IC50: 2.8 ± 1.2 µM

## COc1ccc(OC)c(NC(=O)c2cc(-c3c[nH]c4ccccc34)n[nH]2)c1 [Compound 18, N-(2,5-Dimethoxyphenyl)-3-(1H-indol-3-yl)-1H-pyrazole-5-carboxamide]
Six cancer cell lines
  IC50: 0.6 to 3.6 µM
HepG2
  IC50: 1.3 ± 0.09 µM
Mahlavu [2]
  IC50: 2.9 ± 0.8 µM
[3]
  Colchicine binding % inhibition ± SD, 50 μM: Inhibition was observed
  inhibition at 50 µM: 23 ± 3%
HCT116
  IC50: 1.4 ± 0.5 µM
MCF-7
  IC50: 3.6 ± 0.4 µM
Huh7 [4]
  cell cycle phase arrest, Huh7, higher concentration: cell cycle arrest in the G2/M phase; also recorded: cell cycle arrest at the G2/M phase
  cell cycle phase arrest, Huh7: did not cause a significant change
SNU475
  IC50: 2.9 ± 1.13 µM
[5]
  apoptotic nuclear morphology (Hoechst staining): visible nuclear blebs or deformed nuclei; also recorded: induced apoptotic cell death
Huh7 [6]; [8]
  IC50: 0.6 ± 0.1 µM
Huh7 [6]; [9]
  IC50: 0.6 ± 0.2 µM
Mahlavu [7]
  cell cycle phase arrest, Mahlavu, higher concentration: cell cycle arrest in the G2/M phase; also recorded: cell cycle arrest at the G2/M phase
  cell cycle phase arrest, Mahlavu: arrest in the G2/M phase

## O=C(c1cc(-c2c[nH]c3ccccc23)n[nH]1)N1CCCCC1 [Compound 19, (3-(1H-Indol-3-yl)-1H-pyrazol-5-yl)(piperidin-1-yl)methanone]
HCT116
  IC50: 23 ± 3.5 µM
MCF-7
  IC50: 21.7 ± 2 µM
Huh7 [6]; [8]
  IC50: 19.1 ± 1.8 µM

## O=C(c1cc(-c2c[nH]c3ccccc23)n[nH]1)N1CCOCC1 [Compound 20, (3-(1H-Indol-3-yl)-1H-pyrazol-5-yl)(morpholino)methanone]
HCT116
  IC50: > 50 µM
MCF-7
  IC50: > 50 µM
Huh7 [6]; [8]
  IC50: > 50 µM

## CCCCNC(=O)c1cc(-c2c[nH]c3ccccc23)n[nH]1 [Compound 21, N-Butyl-3-(1H-indol-3-yl)-1H-pyrazole-5-carboxamide]
HCT116
  IC50: 23.1 ± 5.1 µM
MCF-7
  IC50: 26.7 ± 0.5 µM
Huh7 [6]; [8]
  IC50: > 50 µM

## O=C(Nc1ccc(Cl)cc1)c1cc(-c2c[nH]c3ccccc23)n[nH]1 [Compound 22, N-(4-Chlorophenyl)-3-(1H-indol-3-yl)-1H-pyrazole-5-carboxamide]
HCT116
  IC50: > 50 µM
MCF-7
  IC50: 29.8 ± 3.1 µM
Huh7 [6]; [8]
  IC50: > 50 µM

## O=C(Nc1ccc(Br)cc1)c1cc(-c2c[nH]c3ccccc23)n[nH]1 [Compound 23, N-(4-Bromophenyl)-3-(1H-indol-3-yl)-1H-pyrazole-5-carboxamide]
HCT116
  IC50: > 50 µM
MCF-7
  IC50: 39.3 ± 1 µM
Huh7 [6]; [8]
  IC50: > 50 µM

## O=C(NCc1ccncc1)c1cc(-c2c[nH]c3ccccc23)n[nH]1 [Compound 24, 3-(1H-Indol-3-yl)-N-(pyridin-4-ylmethyl)-1H-pyrazole-5-carboxamide]
HCT116
  IC50: 33.2 ± 1 µM
MCF-7
  IC50: 31.2 ± 2.6 µM
Huh7 [6]; [8]
  IC50: 30.4 ± 1.4 µM

## O=C(NCc1cccnc1)c1cc(-c2c[nH]c3ccccc23)n[nH]1 [Compound 25, 3-(1H-Indol-3-yl)-N-(pyridin-3-ylmethyl)-1H-pyrazole-5-carboxamide]
HCT116
  IC50: 26.8 ± 2.1 µM
MCF-7
  IC50: 36.5 ± 4 µM
Huh7 [6]; [8]
  IC50: 29.1 ± 1 µM

## O=C(NCc1ccccn1)c1cc(-c2c[nH]c3ccccc23)n[nH]1 [Compound 26, 3-(1H-Indol-3-yl)-N-(pyridin-2-ylmethyl)-1H-pyrazole-5-carboxamide]
HCT116
  IC50: 34 ± 1.1 µM
MCF-7
  IC50: > 50 µM
Huh7 [6]; [8]
  IC50: 35.4 ± 1.8 µM

## O=C(NC1CCN(Cc2ccccc2)CC1)c1cc(-c2c[nH]c3ccccc23)n[nH]1 [Compound 27, N-(1-Benzylpiperidin-4-yl)-3-(1H-indol-3-yl)-1H-pyrazole-5-carboxamide]
HCT116
  IC50: 8.9 ± 0.7 µM
MCF-7
  IC50: 8.6 ± 0.2 µM
Huh7 [6]; [8]
  IC50: 6.8 ± 0.7 µM

## O=C(c1cc(-c2c[nH]c3ccccc23)n[nH]1)N1CCN(c2ccc(C(F)(F)F)cc2)CC1 [Compound 28, (3-(1H-Indol-3-yl)-1H-pyrazol-5-yl)(4-(4-(trifluoromethyl)phenyl)piperazin-1yl)methanone]
HCT116
  IC50: 27.6 ± 2.4 µM
MCF-7
  IC50: 16.1 ± 1.7 µM
Huh7 [6]; [8]
  IC50: 16.2 ± 3.2 µM

## O=C(c1cc(-c2c[nH]c3ccccc23)n[nH]1)N1CCN(Cc2ccc(C(F)(F)F)cc2)CC1 [Compound 29, (3-(1H-Indol-3-yl)-1H-pyrazol-5-yl)(4-(4-(trifluoromethyl)benzyl)piperazin-1-yl)methanone]
HCT116
  IC50: 4.1 ± 2 µM
MCF-7
  IC50: 3 ± 0.8 µM
Huh7 [6]; [8]
  IC50: 1.7 ± 1.8 µM

## CNC(=O)c1cc(Oc2ccc(NC(=O)Nc3ccc(Cl)c(C(F)(F)F)c3)cc2)ccn1 [Sorafenib, sorafenib, reference compound]
HepG2
  IC50: 4.4 ± 0.8 µM
Mahlavu [2]
  IC50: 8.3 ± 1 µM
HCT116
  IC50: 12 ± 0.6 µM
MCF-7
  IC50: 13.8 ± 1.2 µM
SNU475
  IC50: 9.6 ± 0.5 µM
Huh7 [6]; [8]
  IC50: 6.5 ± 0.7 µM
Huh7 [6]; [9]
  IC50: 6.5 ± 0.7 µM
